{"source": "paper PMC2827632", "about": "(Biochemistry, 2010)", "molecules": {"B1": {"name": "Mycobacterium tuberculosis lipoamide dehydrogenase (Lpd), residues 1-464 (enzyme)", "chain": "MTHYDVVVLGAGPGGYVAAIRAAQLGLSTAIVEPKYWGGVCLNVGCIPSKALLRNAELVHIFTKDAKAFGISGEVTFDYGIAYDRSRKVAEGRVAGVHFLMKKNKITEIHGYGTFADANTLLVDLNDGGTESVTFDNAIIATGSSTRLVPGTSLSANVVTYEEQILSRELPKSIIIAGAGAIGMEFGYVLKNYGVDVTIVEFLPRALPNEDADVSKEIEKQFKKLGVTILTATKVESIADGGSQVTVTVTKDGVAQELKAEKVLQAIGFAPNVEGYGLDKAGVALTDRKAIGVDDYMRTNVGHIYAIGDVNGLLQLAHVAEAQGVVAAETIAGAETLTLGDHRMLPRATFCQPNVASFGLTEQQARNEGYDVVVAKFPFTANAKAHGVGDPSGFVKLVADAKHGELLGGHLVGHDVAELLPELTLAQRWDLTASELARNVHTHPTMSEALQECFHGLVGHMINF"}}, "key": {"human Lpd [1]": {"molecular_target": "T1, human Lpd (Homo sapiens, UniProt P09622)", "T1 sequence (P09622 36-509)": "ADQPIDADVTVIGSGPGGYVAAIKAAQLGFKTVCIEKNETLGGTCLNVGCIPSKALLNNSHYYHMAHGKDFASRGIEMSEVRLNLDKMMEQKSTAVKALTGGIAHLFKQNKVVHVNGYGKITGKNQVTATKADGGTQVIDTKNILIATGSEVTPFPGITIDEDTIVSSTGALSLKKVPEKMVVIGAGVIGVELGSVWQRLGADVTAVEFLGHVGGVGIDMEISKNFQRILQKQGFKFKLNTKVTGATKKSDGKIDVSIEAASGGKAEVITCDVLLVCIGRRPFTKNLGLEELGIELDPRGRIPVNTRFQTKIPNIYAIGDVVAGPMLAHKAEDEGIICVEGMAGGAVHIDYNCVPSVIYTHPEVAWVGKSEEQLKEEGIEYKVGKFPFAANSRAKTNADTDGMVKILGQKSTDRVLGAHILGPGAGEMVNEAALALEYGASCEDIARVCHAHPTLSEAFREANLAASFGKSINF", "assay": "Human Lpd DTNB assay", "format": "biochemical", "conditions": "for Inhibition of human Lpd (words): concentrations up to 100 μM"}, "[2]": {"molecular_target": "T2, bovine thioredoxin reductase (Bos taurus, UniProt O62768)", "T2 sequence (O62768 1-499)": "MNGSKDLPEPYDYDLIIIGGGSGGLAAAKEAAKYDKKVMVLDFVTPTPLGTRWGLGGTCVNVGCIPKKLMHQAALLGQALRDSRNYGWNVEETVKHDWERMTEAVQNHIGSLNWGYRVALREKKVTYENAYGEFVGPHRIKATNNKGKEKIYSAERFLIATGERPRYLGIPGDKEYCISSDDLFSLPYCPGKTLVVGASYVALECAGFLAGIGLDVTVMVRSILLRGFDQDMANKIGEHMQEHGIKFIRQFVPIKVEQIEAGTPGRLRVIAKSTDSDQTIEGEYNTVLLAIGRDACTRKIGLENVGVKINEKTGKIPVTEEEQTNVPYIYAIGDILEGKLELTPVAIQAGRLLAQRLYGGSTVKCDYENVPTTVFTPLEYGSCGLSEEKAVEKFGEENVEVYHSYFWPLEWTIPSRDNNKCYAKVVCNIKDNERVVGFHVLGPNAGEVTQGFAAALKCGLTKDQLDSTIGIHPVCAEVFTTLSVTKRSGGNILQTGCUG", "assay": "Bovine thioredoxin reductase DTNB assay", "format": "biochemical", "conditions": "for IC50: DTNB assay, 100 μM NADPH"}, "bovine Lpd": {"molecular_target": "T3, bovine Lpd (Bos taurus, UniProt F1N206)", "T3 sequence (F1N206 36-509)": "T1 sequence (P09622 36-509) with I35V, Y62F, M65L, D86E, T94N, G135S, M181L, K285Q, P298T", "assay": "Bovine Lpd DTNB assay", "format": "biochemical"}, "porcine PDHC": {"molecular_target": "T4, porcine PDHC (Sus scrofa, UniProt P09623)", "T4 sequence (P09623 36-509)": "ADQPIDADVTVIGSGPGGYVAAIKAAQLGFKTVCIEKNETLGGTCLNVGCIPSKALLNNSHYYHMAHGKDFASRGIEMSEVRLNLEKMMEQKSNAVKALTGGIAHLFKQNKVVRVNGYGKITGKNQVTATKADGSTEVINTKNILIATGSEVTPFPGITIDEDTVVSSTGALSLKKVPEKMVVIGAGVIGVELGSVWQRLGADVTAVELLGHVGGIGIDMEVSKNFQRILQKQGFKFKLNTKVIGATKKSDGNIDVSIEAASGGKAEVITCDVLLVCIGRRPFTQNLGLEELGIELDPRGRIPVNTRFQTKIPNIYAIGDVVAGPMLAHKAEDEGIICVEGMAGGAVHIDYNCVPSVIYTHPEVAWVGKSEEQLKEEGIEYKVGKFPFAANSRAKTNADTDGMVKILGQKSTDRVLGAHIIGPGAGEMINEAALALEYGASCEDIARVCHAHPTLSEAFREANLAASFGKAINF", "assay": "Porcine PDHC assay", "format": "biochemical"}, "[3]": {"test_system": "mouse bone marrow macrophages", "assay": "cells", "format": "cell-based", "conditions": "for EC50: read-out: BMM EC50 (concentration at which viability is reduced to 50%)"}, "human Lpd [4]": {"molecular_target": "T1, human Lpd", "assay": "Human Lpd dihydrolipoamide-NAD+ spectrophotometric assay", "format": "biochemical", "conditions": "dihydrolipoamide and NAD+ as substrates, up to 100 μM"}, "Mtb Lpd [5]": {"molecular_target": "T5, Mtb Lpd (Mycobacterium tuberculosis, UniProt P9WHH9)", "T5 sequence (P9WHH9 1-464)": "B1 chain"}, "Mtb Lpd [6]": {"molecular_target": "T5, Mtb Lpd", "remark": "listed apart in the source"}, "[7]": {"molecular_target": "T6, PDHC activity in Mtb lysates (Mycobacterium tuberculosis, UniProt P9WHH9)", "T6 sequence (P9WHH9 1-464)": "B1 chain", "format": "biochemical"}, "Mtb Lpd [8]": {"molecular_target": "T5, Mtb Lpd", "remark": "listed apart in the source"}, "Mtb PDHC": {"molecular_target": "T7, Mtb PDHC (Mycobacterium tuberculosis, UniProt P9WHH9)", "T7 sequence (P9WHH9 1-464)": "B1 chain", "conditions": "read-out: IC50 Mtb PDHC; PDHC assay"}, "crystal structure": {"molecular_target": "the molecule itself", "assay": "crystal structure"}}, "note": "Where a chain is given by its changes, count along the chain named. Where two headings read alike, the source gives them in different places."}
{"molecule": "COc1ccc(C(=O)N2CCC3(CC2)C(=O)N(CC(=O)NCCc2ccc(Cl)cc2Cl)CN3c2ccccc2)c(OC)c1", "note": "[compound 5, N-(2,4-dichlorophenethyl)-2-(8-(2,4-dimethoxybenzoyl)-4-oxo-1-phenyl-1,3,8-triazaspiro[4.5]decan-3-yl)acetamide]", "values": [{"measurement": "IC50", "setting": "human Lpd [1]", "value": "> 100", "unit": "µM"}, {"measurement": "Inhibition of human Lpd (words)", "setting": "human Lpd [1]", "value": "did not produce any measurable inhibition"}, {"measurement": "Inhibition of human Lpd (words)", "setting": "human Lpd [1]; listed as Compound 5", "value": "no inhibition"}, {"measurement": "Inhibition of bovine thioredoxin reductase", "setting": "[2]; Fig. 2C", "value": "minimally inhibits"}, {"measurement": "IC50", "setting": "[2]; IC50 bTR", "value": 20, "unit": "µM"}, {"measurement": "IC50", "setting": "bovine Lpd", "value": 100, "unit": "µM"}, {"measurement": "Inhibition of bovine Lpd", "setting": "bovine Lpd; Fig. 2C", "value": "minimally inhibits"}, {"measurement": "IC50", "setting": "porcine PDHC", "value": 100, "unit": "µM"}, {"measurement": "Inhibition of porcine PDHC", "setting": "porcine PDHC; Fig. 2C", "value": "minimally inhibits"}, {"measurement": "Mouse bone marrow macrophage survival", "setting": "[3]; 100 μM (limit of solubility)", "value": 80, "unit": "%"}, {"measurement": "Toxicity against primary mouse bone marrow macrophages", "setting": "[3]; Fig. 2C", "value": "no toxicity"}, {"measurement": "EC50", "setting": "[3]; Mus musculus, Bone marrow macrophage, 24 h", "value": "> 100", "unit": "µM"}, {"measurement": "Inhibition of human Lpd, physiological direction", "setting": "human Lpd [4]", "value": "No inhibition"}, {"measurement": "Mode of inhibition with respect to NADH", "setting": "Mtb Lpd [5]; variable NADH 3.33 to 100 μM", "value": "noncompetitive"}, {"measurement": "Mode of inhibition with respect to lipoamide", "setting": "Mtb Lpd [5]; variable lipoamide", "value": "noncompetitive"}, {"measurement": "Inhibition of Mtb Lpd in dihydrolipoamide-NAD+ assay", "setting": "Mtb Lpd [6]", "value": "inhibited"}, {"measurement": "Mode of inhibition with respect to NAD+", "setting": "Mtb Lpd [6]; variable NAD+ 25 μM to 2.5 mM", "value": "noncompetitive"}]}
{"molecule": "COc1ccc(C(=O)N2CCC3(CC2)C(=O)N(CC(=O)NCc2cccc(C(F)(F)F)c2)CN3c2ccccc2)c(OC)c1", "note": "[compound 4, 2-(8-(2,4-dimethoxybenzoyl)-4-oxo-1-phenyl-1,3,8-triazaspiro[4.5]decan-3-yl)-N-(3-(trifluoromethyl)benzyl) acetamide]", "values": [{"measurement": "Inhibition of human Lpd (words)", "setting": "human Lpd [1]", "value": "did not inhibit"}, {"measurement": "IC50", "setting": "human Lpd [1]; read-out: IC50 hLpd, DTNB assay", "value": "> 100", "unit": "µM"}, {"measurement": "IC50", "setting": "[2]; read-out: IC50 bTR", "value": "> 100", "unit": "µM"}, {"measurement": "IC50", "setting": "bovine Lpd; read-out: IC50 bLpd, DTNB assay", "value": "> 100", "unit": "µM"}, {"measurement": "IC50", "setting": "porcine PDHC; read-out: IC50 pPDHC, PDHC assay", "value": 100, "unit": "µM"}, {"measurement": "EC50", "setting": "[3]", "value": "> 100", "unit": "µM"}, {"measurement": "Inhibition of human Lpd, physiological direction", "setting": "human Lpd [4]", "value": "No inhibition"}, {"measurement": "IC50 for Lpd activity in Mtb extracts measured by inhibition of PDHC activity", "setting": "[7]", "value": "low micromolar range"}, {"measurement": "IC50", "setting": "Mtb Lpd [8]; read-out: IC50 Mtb Lpd + BSA, DTNB assay with 100 μg/ml bovine serum albumin", "value": 2.1, "unit": "µM"}, {"measurement": "IC50", "setting": "Mtb Lpd [8]; read-out: IC50 Mtb Lpd, DTNB assay", "value": 2, "unit": "µM"}, {"measurement": "IC50", "setting": "Mtb Lpd [5]; read-out: IC50 Mtb Lpd NADH-lipoamide, NADH-lipoamide assay", "value": 2, "unit": "µM"}, {"measurement": "IC50", "setting": "Mtb PDHC", "value": 7.2, "unit": "µM"}, {"measurement": "Inhibition of Mtb Lpd in dihydrolipoamide-NAD+ assay", "setting": "Mtb Lpd [6]", "value": "inhibited"}]}
{"molecule": "B1", "values": [{"measurement": "binding result", "setting": "crystal structure", "value": "binds"}]}
